Among the data in patent US20240190890A1, “MK2 INHIBITORS AND USES THEREOF” (Bristol-Myers Squibb Company, priority 2022, published 2024) are IC50 values, retold here.

The assay concerns the target p38a activated, mitogen-activated protein kinase-activated protein kinase 2 (MAPKAP-K2 or MK2) enzyme (Homo sapiens (Human), UniProt P49137). The assay can be described thus: MK2 Omnia continuous-read kinase assay for compound potency. Format: biochemical. Particulars: [MK-2]=0.4 nM, [ATP]=10 μM, [ST3-Sox]=10 μM; room temperature. In a few lines: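 p38a-activated MK2 (0.4 nM) with 10 μM ATP (apparent Km) and 10 μM S/T3-Sox peptide in Tris pH 7.5 buffer with MgCl2, EGTA and DTT. Fluorescence (ex360/em485) read continuously for 120 min at room temperature. IC50 from initial linear slopes; apparent kinact/KI from kobs of exponential progress-curve fits.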

p38a activated, mitogen-activated protein kinase-activated protein kinase 2 (MAPKAP-K2 or MK2) enzyme, sequence (P49137 whole entry): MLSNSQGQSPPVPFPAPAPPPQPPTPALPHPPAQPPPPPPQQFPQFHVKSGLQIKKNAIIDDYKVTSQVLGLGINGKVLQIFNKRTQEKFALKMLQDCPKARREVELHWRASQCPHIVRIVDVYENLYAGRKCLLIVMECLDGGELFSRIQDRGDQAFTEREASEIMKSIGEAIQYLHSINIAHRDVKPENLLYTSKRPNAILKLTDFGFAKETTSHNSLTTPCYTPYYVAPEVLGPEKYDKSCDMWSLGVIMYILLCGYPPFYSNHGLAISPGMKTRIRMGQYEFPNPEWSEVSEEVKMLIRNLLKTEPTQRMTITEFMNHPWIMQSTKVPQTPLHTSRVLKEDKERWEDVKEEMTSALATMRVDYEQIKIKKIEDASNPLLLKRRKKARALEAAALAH

By IC50 is commonly meant the point on the concentration scale where inhibition reaches its midpoint. Turning to `C#Cc1nccc(-c2ccc3c(ccc4sc5c(c43)NC[C@@H](C)NC5=O)n2)c1F` [Example I-218, (R)-3-(2-ethynyl-3-fluoropyridin-4-yl)-10-methyl-9,10,11,12-tetrahydro-8H-[1,4]diazepino[5′,6′:4,5]thieno[3,2-f]quinolin-8-one], the IC50 worked out at 79 nM.

As to `C=Cc1cc(-c2ccc3c(ccc4sc5c(c43)NC[C@@H](C)NC5=O)n2)cc(C2=CCN(C)CC2)n1` [Example I-101, (R)-10-methyl-3-(1′-methyl-6-vinyl-1′,2′,3′,6′-tetrahydro-[2,4′-bipyridin]-4-yl)-9,10,11,12-tetrahydro-8H-[1,4]diazepino[5′,6′:4,5]thieno[3,2-f]quinolin-8-one], the half-inhibitory concentration (IC50) turned out to be 8 nM.

Regarding `C[C@@H]1CNc2c(sc3ccc4nc(-c5nc(Cl)ncc5C#N)ccc4c23)C(=O)N1` [Example I-9, (R)-2-chloro-4-(10-methyl-8-oxo-9,10,11,12-tetrahydro-8H-[1,4]diazepino[5′,6′:4,5]thieno[3,2-f]quinolin-3-yl)pyrimidine-5-carbonitrile], the half-inhibitory concentration (IC50) amounted to 97 nM.

Turning to `C=Cc1cc(-c2ccc3c(ccc4sc5c(c43)NC[C@@H](C)NC5=O)n2)cc(N2CCC(OC)CC2)n1` [Example I-158, (R)-3-(2-(4-methoxypiperidin-1-yl)-6-vinylpyridin-4-yl)-10-methyl-9,10,11,12-tetrahydro-8H-[1,4]diazepino[5′,6′:4,5]thieno[3,2-f]quinolin-8-one], the half-inhibitory concentration (IC50) was found to be 38 nM.

Regarding `C#Cc1ncc(OC)c(-c2ccc3c(ccc4sc5c(c43)NC[C@@H](C)NC5=O)n2)n1` [Example I-42, (R)-3-(2-ethynyl-5-methoxypyrimidin-4-yl)-10-methyl-9,10,11,12-tetrahydro-8H-[1,4]diazepino[5′,6′:4,5]thieno[3,2-f]quinolin-8-one], the 50% inhibitory concentration (IC50) turned out to be 233 nM.

With `C=Cc1cc(-c2ccc3c(ccc4sc5c(c43)NC[C@@H](C)NC5=O)n2)cc(N2CCNCC2)n1` [Example I-175, (R)-10-methyl-3-(2-(piperazin-1-yl)-6-vinylpyridin-4-yl)-9,10,11,12-tetrahydro-8H-[1,4]diazepino[5′,6′:4,5]thieno[3,2-f]quinolin-8-one], the IC50 came to 10 nM.

Regarding `CCOCc1nc(Cl)cc(-c2ccc3c(ccc4sc5c(c43)NC[C@@H](C)NC5=O)n2)n1` [Example I-30, (R)-3-(6-chloro-2-(ethoxymethyl)pyrimidin-4-yl)-10-methyl-9,10,11,12-tetrahydro-8H-[1,4]diazepino[5′,6′:4,5]thieno[3,2-f]quinolin-8-one], the IC50 worked out at 16 nM.

Consider `C[C@@H]1CNc2c(sc3ccc4nc(-c5cc(Cl)nc(CO)c5)ccc4c23)C(=O)N1` [Example I-97, (R)-3-(2-chloro-6-(hydroxymethyl)pyridin-4-yl)-10-methyl-9,10,11,12-tetrahydro-8H-[1,4]diazepino[5′,6′:4,5]thieno[3,2-f]quinolin-8-one], for which the IC50 came to 60 nM.

Consider `C#Cc1cc(-c2ccc3c(ccc4sc5c(c43)NC[C@@H](C)NC5=O)n2)c(F)cn1` [Example I-71, (R)-3-(2-ethynyl-5-fluoropyridin-4-yl)-10-methyl-9,10,11,12-tetrahydro-8H-[1,4]diazepino[5′,6′:4,5]thieno[3,2-f]quinolin-8-one], for which the IC50 came out at 39 nM.

`C=Cc1cc(-c2ccc3c(ccc4sc5c(c43)NC[C@@H](C)NC5=O)n2)cc(Cl)n1` [Example I-72, (R)-3-(2-chloro-6-vinylpyridin-4-yl)-10-methyl-9,10,11,12-tetrahydro-8H-[1,4]diazepino[5′,6′:4,5]thieno[3,2-f]quinolin-8-one]: the IC50 was found to be 58 nM.

With `C=Cc1cc(-c2ccc3c(ccc4sc5c(c43)NC[C@@H](C)NC5=O)n2)c(C)nn1` [Example I-136, (R)-10-methyl-3-(3-methyl-6-vinylpyridazin-4-yl)-9,10,11,12-tetrahydro-8H-[1,4]diazepino[5′,6′:4,5]thieno[3,2-f]quinolin-8-one], the IC50 is 9 nM.

Take `C#Cc1cc(-c2ccc3c(ccc4sc5c(c43)NC[C@@H](C)NC5=O)n2)nc(CO)n1` [Example I-78, (R)-3-(6-ethynyl-2-(hydroxymethyl)pyrimidin-4-yl)-10-methyl-9,10,11,12-tetrahydro-8H-[1,4]diazepino[5′,6′:4,5]thieno[3,2-f]quinolin-8-one]: the half-maximal inhibitory concentration (IC50) turned out to be 1 nM.

On to `C/C=C/c1ncc(COCC)c(-c2ccc3c(ccc4sc5c(c43)NC[C@@H](C)NC5=O)n2)n1` [Example I-48, (R,E)-3-(5-(ethoxymethyl)-2-(prop-1-en-1-yl)pyrimidin-4-yl)-10-methyl-9,10,11,12-tetrahydro-8H-[1,4]diazepino[5′,6′:4,5]thieno[3,2-f]quinolin-8-one], for which the half-inhibitory concentration (IC50) came out at 371 nM.

Regarding `C#Cc1cc(-c2ccc3c(ccc4sc5c(c43)NC[C@@H](C)NC5=O)n2)cc(CN2CCC(OC(F)(F)F)CC2)n1` [Example I-190, (R)-3-(2-ethynyl-6-((4-(trifluoromethoxy)piperidin-1-yl)methyl)pyridin-4-yl)-10-methyl-9,10,11,12-tetrahydro-8H-[1,4]diazepino[5′,6′:4,5]thieno[3,2-f]quinolin-8-one], the half-inhibitory concentration (IC50) came out at 402 nM.

As to `C=Cc1nscc1-c1ccc2c(ccc3sc4c(c32)NC[C@@H](C)NC4=O)n1` [Example I-228, (R)-10-methyl-3-(3-vinylisothiazol-4-yl)-9,10,11,12-tetrahydro-8H-[1,4]diazepino[5′,6′:4,5]thieno[3,2-f]quinolin-8-one], the IC50 worked out at 128 nM.

For `C[C@@H]1CNc2c(sc3ccc4nc(-c5nc(Cl)ncc5F)ccc4c23)C(=O)N1` [Example I-273, (R)-3-(2-chloro-5-fluoropyrimidin-4-yl)-10-methyl-9,10,11,12-tetrahydro-8H-[1,4]diazepino[5′,6′:4,5]thieno[3,2-f]quinolin-8-one], the IC50 was 153 nM.

Consider `C[C@@H]1CNc2c(sc3ccc4nc(-c5cc(Cl)nc(Cl)n5)ccc4c23)C(=O)N1` [Example I-58, (R)-3-(2,6-dichloropyrimidin-4-yl)-10-methyl-9,10,11,12-tetrahydro-8H-[1,4]diazepino[5′,6′:4,5]thieno[3,2-f]quinolin-8-one], for which the concentration for half-maximal inhibition (IC50) was found to be 16 nM.

On to `C=Cc1cc(-c2ccc3c(ccc4sc5c(c43)NC[C@@H](C)NC5=O)n2)c(C)c(C)n1` [Example I-194, (R)-3-(2,3-dimethyl-6-vinylpyridin-4-yl)-10-methyl-9,10,11,12-tetrahydro-8H-[1,4]diazepino[5′,6′:4,5]thieno[3,2-f]quinolin-8-one], for which the IC50 was 5 nM.

In the case of `C#Cc1cc(-c2ccc3c(ccc4sc5c(c43)NC[C@@H](C)NC5=O)n2)cc(C2=CCN(C)CC2)n1` [Example I-102, (R)-3-(6-ethynyl-1′-methyl-1′,2′,3′,6′-tetrahydro-[2,4′-bipyridin]-4-yl)-10-methyl-9,10,11,12-tetrahydro-8H-[1,4]diazepino[5′,6′:4,5]thieno[3,2-f]quinolin-8-one], the 50% inhibitory concentration (IC50) turned out to be 8 nM.

On to `C#Cc1cc(-c2ccc3c(ccc4sc5c(c43)NC[C@@H](C)NC5=O)n2)cc(N2CC(F)(F)C2)n1` [Example I-183, (R)-3-(2-(3,3-difluoroazetidin-1-yl)-6-ethynylpyridin-4-yl)-10-methyl-9,10,11,12-tetrahydro-8H-[1,4]diazepino[5′,6′:4,5]thieno[3,2-f]quinolin-8-one], for which the half-maximal inhibitory concentration (IC50) came out at 839 nM.

`C=Cc1nc(C)nn1-c1ccc2c(ccc3sc4c(c32)NC[C@@H](C)NC4=O)n1` [Example I-224, (R)-10-methyl-3-(3-methyl-5-vinyl-1H-1,2,4-triazol-1-yl)-9,10,11,12-tetrahydro-8H-[1,4]diazepino[5′,6′:4,5]thieno[3,2-f]quinolin-8-one]: the IC50 was found to be 2 nM.

Take `C=Cc1ncc(F)c(-c2ccc3c(ccc4sc5c(c43)NC[C@@H](C)NC5=O)n2)n1` [Example I-2, (R)-3-(5-fluoro-2-vinylpyrimidin-4-yl)-10-methyl-9,10,11,12-tetrahydro-8H-[1,4]diazepino[5′,6′:4,5]thieno[3,2-f]quinolin-8-one]: the concentration for half-maximal inhibition (IC50) is 133 nM.

Consider `C#Cc1ncc(CO)c(-c2ccc3c(ccc4sc5c(c43)NC[C@@H](C)NC5=O)n2)n1` [Example I-79, (R)-3-(2-ethynyl-5-(hydroxymethyl)pyrimidin-4-yl)-10-methyl-9,10,11,12-tetrahydro-8H-[1,4]diazepino[5′,6′:4,5]thieno[3,2-f]quinolin-8-one], for which the half-inhibitory concentration (IC50) was 568 nM.

As to `C=Cc1nc(C2CC2)n(-c2ccc3c(ccc4sc5c(c43)NC[C@@H](C)NC5=O)n2)n1` [Example I-248, (R)-3-(5-cyclopropyl-3-vinyl-1H-1,2,4-triazol-1-yl)-10-methyl-9,10,11,12-tetrahydro-8H-[1,4]diazepino[5′,6′:4,5]thieno[3,2-f]quinolin-8-one], the IC50 stood at 303 nM.

Turning to `C=Cc1cc(-c2ccc3c(ccc4sc5c(c43)NC[C@@H](C)NC5=O)n2)cc(CN2CCC(OC)CC2)n1` [Example I-121, (R)-3-(2-((4-methoxypiperidin-1-yl)methyl)-6-vinylpyridin-4-yl)-10-methyl-9,10,11,12-tetrahydro-8H-[1,4]diazepino[5′,6′:4,5]thieno[3,2-f]quinolin-8-one], the IC50 amounted to 11 nM.

As to `C=Cc1cc(-c2ccc3c(ccc4sc5c(c43)NC[C@@H](C)NC5=O)n2)c(CN2CCC(C(F)(F)F)CC2)cn1` [Example I-212, (R)-10-methyl-3-(5-((4-(trifluoromethyl)piperidin-1-yl)methyl)-2-vinylpyridin-4-yl)-9,10,11,12-tetrahydro-8H-[1,4]diazepino[5′,6′:4,5]thieno[3,2-f]quinolin-8-one], the IC50 is 92 nM.

As for `C[C@@H]1CNc2c(sc3ccc4nc(-c5ccnc(/C=C/C(F)(F)F)c5)ccc4c23)C(=O)N1` [Example I-199, (R,E)-10-methyl-3-(2-(3,3,3-trifluoroprop-1-en-1-yl)pyridin-4-yl)-9,10,11,12-tetrahydro-8H-[1,4]diazepino[5′,6′:4,5]thieno[3,2-f]quinolin-8-one], the concentration for half-maximal inhibition (IC50) was 636 nM.
